In US8236827B2, “Compounds” (Spear Therapeutics Limited, priority 2009, dated 2012):

Assays:
CYP3A5 = CYP3A5 (Homo sapiens, UniProt P20815); assay: CYP phenotyping, metabolic stability; assay type: in vitro ADME; settings: CYP3A5 (10 pm/mL)
Procedure: (§1) As mentioned above, a feature of the compounds of the invention is their metabolism by CYP1B1 which is expressed at high frequency in a wide range of human cancers of different histogenetic types, but not in normal tissues. […] Compounds V and II were exposed to a panel of six CYPs (see Table 5 below).
(§2) CYP metabolism studies were performed by Cerep Laboratories (Redmond, Wash., USA). Compounds were screened in duplicate at 1 μM in the presence of CYP enzyme, NADP (1.3 mM), D-Glucose-6-phosphate (3.3 mM) and Glucose-6-phosphate dehydrogenase. Following incubation at 0 and 60 minutes, parent compound levels were determined using standard HPLC/MS/MS procedures. The results are expressed as percent parent compound remaining after 60 minutes.

[1] = Cytotoxicity (MTS) in CHO/CYP1B1 cells; assay type: cell-based, Chinese Hamster; settings: Chinese hamster
Procedure: (§3) CHO/CYP1A1 and CHO/CYP1B1 cells: CHO cells containing recombinant CYP1A1 and recombinant CYP1B1 co-expressing P450 reductase, namely (CHO/CYP1A1) and (CHO/CYP1B1) respectively, were cultured using the standard culture medium for CHO cells supplemented with 0.4 mg/ml G418 disulfate salt and 0.3 μM methotrexate (Sigma/Aldrich Co., Gillingham, Dorset, UK) according to methods described in the literature (ibid.) Cells were grown at 37° C. in a humidified atmosphere plus 5% CO2.
(§4) A single cell suspension of CHO, CHO/CYP1A1 or CHO/CYP1B1 in 100 μl of the required cell culture medium was seeded onto 96-well plates at a cell density of 1500 cells per well and placed in an incubator for 24 h at 37° C. The stock solution of test compound in DMSO was then added to give a concentration range of 100, 30, 10, 3, 1, 0.3, 0.1, 0.03, 0.01, 0.003, 0.001, 0 μM. The final concentration of DMSO 0.2% was found not to affect the growth characteristics of the various CHO cell lines. The cells were incubated with the test compound for 96 h after which all the medium was aspirated and replaced with 100 μl of fresh medium to compensate for the loss of medium due to evaporation. The cells were incubated with 20 μl of the MTS assay reagent for 1.5 h and the absorbance per well at 510 nm measured using a plate reader. The mean absorbance and standard deviation for each test compound concentration was calculated versus a series of controls including (a) cells plus medium, (b) cell plus medium containing DMSO 0.2%, (c) medium alone, and (d) medium containing DMSO 0.2% and a range of test compound concentrations from 0 to 100 μM.
(§5) The MTS assay is a homogeneous, colorimetric method for determining the number of viable cells in proliferation, cytotoxicity or chemosensitivity assays (Cali J J, et al., “Luminescence-Based Methods and Probes for Measuring Cytochrome P450 Activity”, pp. 1-29. Promega Corporation, United States, 2004, the contents of which are incorporated herein by reference). The assay is composed of solutions of tetrazolium compound [3-(4,5-dimethylthiazol-2-yl)-5-(3-carboxymethoxyphenyl)-2-(4-sulfophenyl)-2H-tetrazolium, inner salt; MTS] and an electron coupling reagent (phenazine methosulfate) PMS. MTS is bioreduced by cells into a formazan product that is soluble in tissue culture medium. The absorbance of the formazan product at 510 nm can be directly measured from 96-well assay plates. The quantity of formazan product as measured by the amount of absorbance at 490 or 510 nm is directly proportional to the number of living cells in culture.

CHO/CYP1B1 cells = assay: Cytotoxicity (MTS) in CHO/CYP1B1 cells; assay type: cell-based, Chinese Hamster
Procedure: as §3, §4, §5

wild-type CHO cells = assay: Cytotoxicity (MTS) in wild-type CHO cells; assay type: cell-based, Chinese Hamster; settings: for IC50: Cricetulus griseus, CHO, 96 h, MTS
Procedure: CHO cells: Chinese Hamster Ovary (CHO) DUKXB11 cells were grown under standard cell culture conditions in α-MEM supplemented with 10% FCS, 1 unit/ml each of hypoxanthine and thymidine, and penicillin (100 IU/ml) and streptomycin (100 μg/ml) according to literature methods (Ding S, et al., Arch. Biochem. Biophys., 348: 403-410, 1997, the contents of which are incorporated herein by reference). Cells were grown at 37° C. in a humidified atmosphere plus 5% CO2.
as §4, §5

CHO/CYP1A1 cells = assay: Cytotoxicity (MTS) in CHO/CYP1A1 cells; assay type: cell-based, Chinese Hamster
Procedure: as §3, §4, §5

[2] = Cytotoxicity (MTS) in CHO/CYP1A1 cells; assay type: cell-based, Chinese Hamster; settings: Chinese hamster; 96 h, MTS
Procedure: as §3, §4, §5

CYP1A2 = target: T1, CYP1A2 (Homo sapiens, UniProt P05177); assay: CYP phenotyping, metabolic stability; assay type: in vitro ADME; settings: CYP1A2 (40 pm/mL)
T1 sequence (P05177 1-516): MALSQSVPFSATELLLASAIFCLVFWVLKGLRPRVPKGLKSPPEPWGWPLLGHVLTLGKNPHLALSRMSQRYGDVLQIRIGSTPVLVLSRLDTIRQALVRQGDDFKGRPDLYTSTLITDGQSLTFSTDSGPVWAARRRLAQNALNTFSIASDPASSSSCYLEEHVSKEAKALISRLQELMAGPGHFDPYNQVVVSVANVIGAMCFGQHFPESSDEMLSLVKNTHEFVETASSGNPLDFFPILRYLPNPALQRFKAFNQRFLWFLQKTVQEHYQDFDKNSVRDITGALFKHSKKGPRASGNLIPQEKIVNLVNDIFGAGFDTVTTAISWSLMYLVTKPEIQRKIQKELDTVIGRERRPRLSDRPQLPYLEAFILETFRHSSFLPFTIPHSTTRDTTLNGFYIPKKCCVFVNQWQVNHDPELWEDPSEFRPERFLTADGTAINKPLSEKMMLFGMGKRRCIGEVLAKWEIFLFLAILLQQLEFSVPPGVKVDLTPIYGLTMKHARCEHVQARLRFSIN
Procedure: as §1, §2

[3] = test system: UTSCC-14 xenograft tumours; assay: UTSCC-14 xenograft study in nu/nu mice; assay type: in vivo; settings: 7, 20, 50 mg/kg i.p. daily for 29 days; tumours excised day 40; versus vehicle control
Procedure: The study compared the efficacy of Compound II with a vehicle control in UTSCC-14 xenograft tumours at three different dose levels.
Forty female nu/nu mice (7-9 wks old, weight 20-25 grams) were implanted sc with 2e6 UTSCC-14 cells and randomized 10 days later into […] (Table 1) with an approximate tumour volume of 100-150 mm-3. All groups were dosed daily ip for 29 days. On day 40 tumours were excised and weighed.
The UTSCC-14 cells used in the experiment were sourced from Professor Reidar Grénman's laboratory at the University of Turku, Department of Head and Neck Surgery, Turku University, Turku, Finland) and taken from a grade II primary tumour from the tongue of a head and neck cancer patient.
Compound II was dissolved/suspended in 100% cell culture grade DMSO at 40 mg/ml, before dilution with ddH20 immediately prior to dosing to make a stock 50% DMSO/Water solution. This stock solution was used to prepare all doses by dilution with 50% DMSO/Water to achieve the required concentration.
FIG. 2 compares the weight in grams of tumours excised on day 40 of the study. […] The study provides evidence that Compound II (and related compounds described here) are useful in the development of novel cancer therapies.

CYP3A4 = CYP3A4 (Homo sapiens, UniProt P08684); assay: CYP phenotyping, metabolic stability; assay type: in vitro ADME; settings: CYP3A4 (10 pm/mL); 1 μM; after 60 minutes
Procedure: (§6) Compounds V and II were exposed to a panel of six CYPs (see Table 5 below).
as §2

CYP2C19 = CYP2C19 (Homo sapiens, UniProt P33261); assay: CYP phenotyping, metabolic stability; assay type: in vitro ADME; settings: CYP2C19 (10 pm/mL); 1 μM; after 60 minutes
Procedure: as §6, §2

CYP2D6 = CYP2D6 (Homo sapiens, UniProt P10635); assay: CYP phenotyping, metabolic stability; assay type: in vitro ADME; settings: CYP2D6 (10 pm/mL); 1 μM; after 60 minutes
Procedure: as §6, §2

CYP2C9 = CYP2C9 (Homo sapiens, UniProt P11712); assay: CYP phenotyping, metabolic stability; assay type: in vitro ADME; settings: CYP2C9 (10 pm/mL); 1 μM; after 60 minutes
Procedure: as §6, §2

CSK = CSK (Homo sapiens, UniProt P41240); assay: Cerep kinase screen; assay type: biochemical; settings: read-out: % Inhibition of Control
Procedure: (§7) Kinase screening was performed by Cerep Laboratories (Celle l′Evescault, France). Compounds were screened in duplicate at a single concentration (10 μM). The results, set forth in Table 4 below, are expressed as percent inhibition of control specific activity: {100−[(measured specific activity/control specific activity)×100]} obtained in the presence of Compound XI and Compound V. ATP concentrations correspond to the ATP Km value for each individual kinase (Cerep, private communication). In each experiment, a reference compound was tested concurrently with Compound XI and Compound V in order to assess the assay reliability. IC50 values for the reference compounds were within accepted limits (±0.5 log units) of the historic average.

Fyn = Fyn (Homo sapiens, UniProt P06241); assay: Cerep kinase screen; assay type: biochemical; settings: read-out: % Inhibition of Control
Procedure: as §7

Lyn = Lyn (Homo sapiens, UniProt P07948); assay: Cerep kinase screen; assay type: biochemical; settings: read-out: % Inhibition of Control
Procedure: as §7

KDR (VEGFR2) = KDR (VEGFR2) (Homo sapiens, UniProt P35968); assay: Cerep kinase screen; assay type: biochemical; settings: read-out: % Inhibition of Control
Procedure: as §7

FGFR2 = FGFR2 (Homo sapiens, UniProt P21802); assay: Cerep kinase screen; assay type: biochemical; settings: read-out: % Inhibition of Control
Procedure: as §7

FLT-1 = FLT-1 (Homo sapiens, UniProt P17948); assay: Cerep kinase screen; assay type: biochemical; settings: read-out: % Inhibition of Control
Procedure: as §7

PDGFRβ = PDGFRβ (Homo sapiens, UniProt P09619); assay: Cerep kinase screen; assay type: biochemical; settings: read-out: % Inhibition of Control
Procedure: as §7

FLT-3 = FLT-3 (Homo sapiens, UniProt P36888); assay: Cerep kinase screen; assay type: biochemical; settings: read-out: % Inhibition of Control
Procedure: as §7

FGFR4 = FGFR4 (Homo sapiens, UniProt P22455); assay: Cerep kinase screen; assay type: biochemical; settings: read-out: % Inhibition of Control
Procedure: as §7

C-Met (HGFR) = C-Met (HGFR) (Homo sapiens, UniProt P08581); assay: Cerep kinase screen; assay type: biochemical; settings: read-out: % Inhibition of Control
Procedure: as §7

[4] = 96 h, MTS, read-out: CHO/CYP1B1 IC50

CYP3A5, sequence (P20815 whole entry, species assumed): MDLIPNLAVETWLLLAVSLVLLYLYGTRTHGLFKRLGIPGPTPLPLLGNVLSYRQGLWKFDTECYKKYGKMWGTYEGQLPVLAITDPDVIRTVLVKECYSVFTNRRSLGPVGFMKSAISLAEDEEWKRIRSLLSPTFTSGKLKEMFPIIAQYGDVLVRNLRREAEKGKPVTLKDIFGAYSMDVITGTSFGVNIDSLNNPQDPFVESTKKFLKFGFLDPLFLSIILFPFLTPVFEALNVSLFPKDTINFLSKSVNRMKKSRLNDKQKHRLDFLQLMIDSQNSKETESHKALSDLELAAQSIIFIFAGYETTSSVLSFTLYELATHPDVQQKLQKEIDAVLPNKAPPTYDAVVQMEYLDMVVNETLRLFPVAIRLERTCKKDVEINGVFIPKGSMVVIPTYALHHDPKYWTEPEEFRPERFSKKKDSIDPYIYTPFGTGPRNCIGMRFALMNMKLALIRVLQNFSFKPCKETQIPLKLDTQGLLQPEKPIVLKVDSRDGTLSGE
CYP2C9, sequence (P11712 whole entry, species assumed): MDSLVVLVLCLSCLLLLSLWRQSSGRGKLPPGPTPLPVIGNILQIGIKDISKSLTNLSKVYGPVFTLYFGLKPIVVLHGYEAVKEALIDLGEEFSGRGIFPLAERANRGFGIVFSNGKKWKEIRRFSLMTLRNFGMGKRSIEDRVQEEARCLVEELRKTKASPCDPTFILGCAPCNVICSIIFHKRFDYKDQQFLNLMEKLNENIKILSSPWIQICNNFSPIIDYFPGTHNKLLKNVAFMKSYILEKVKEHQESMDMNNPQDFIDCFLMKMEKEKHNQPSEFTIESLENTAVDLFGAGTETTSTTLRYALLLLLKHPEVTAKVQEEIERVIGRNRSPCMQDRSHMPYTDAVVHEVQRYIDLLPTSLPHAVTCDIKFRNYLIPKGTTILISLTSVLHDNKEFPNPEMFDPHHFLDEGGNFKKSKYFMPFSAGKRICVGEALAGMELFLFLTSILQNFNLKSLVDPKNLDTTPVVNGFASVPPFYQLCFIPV
CYP2C19, sequence (P33261 whole entry, species assumed): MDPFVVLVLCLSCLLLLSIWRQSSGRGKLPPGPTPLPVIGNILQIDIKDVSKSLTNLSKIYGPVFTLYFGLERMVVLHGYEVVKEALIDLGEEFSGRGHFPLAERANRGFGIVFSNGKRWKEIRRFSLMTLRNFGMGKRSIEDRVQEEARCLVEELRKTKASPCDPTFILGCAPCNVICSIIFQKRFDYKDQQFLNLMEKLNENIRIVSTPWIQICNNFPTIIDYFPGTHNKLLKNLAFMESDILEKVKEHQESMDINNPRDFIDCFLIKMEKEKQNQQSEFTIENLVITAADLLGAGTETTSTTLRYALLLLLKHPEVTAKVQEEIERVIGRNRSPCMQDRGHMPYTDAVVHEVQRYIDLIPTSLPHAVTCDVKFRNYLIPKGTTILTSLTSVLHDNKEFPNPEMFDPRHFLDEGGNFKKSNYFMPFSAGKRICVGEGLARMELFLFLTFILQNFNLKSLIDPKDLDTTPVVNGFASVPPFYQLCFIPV
CYP3A4, sequence (P08684 whole entry, species assumed): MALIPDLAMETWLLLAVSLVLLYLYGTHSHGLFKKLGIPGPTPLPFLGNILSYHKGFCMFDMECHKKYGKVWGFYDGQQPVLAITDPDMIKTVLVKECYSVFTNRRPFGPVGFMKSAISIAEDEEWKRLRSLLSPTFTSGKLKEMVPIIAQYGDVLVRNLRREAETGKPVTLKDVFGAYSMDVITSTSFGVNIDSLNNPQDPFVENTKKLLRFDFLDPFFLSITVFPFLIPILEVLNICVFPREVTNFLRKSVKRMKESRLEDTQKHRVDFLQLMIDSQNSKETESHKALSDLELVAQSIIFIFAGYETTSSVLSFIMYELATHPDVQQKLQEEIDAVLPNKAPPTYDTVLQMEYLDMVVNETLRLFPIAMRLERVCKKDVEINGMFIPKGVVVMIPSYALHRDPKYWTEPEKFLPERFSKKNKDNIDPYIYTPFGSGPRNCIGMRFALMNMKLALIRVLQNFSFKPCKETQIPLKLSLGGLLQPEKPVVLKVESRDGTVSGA
Lyn, sequence (P07948 whole entry, species assumed): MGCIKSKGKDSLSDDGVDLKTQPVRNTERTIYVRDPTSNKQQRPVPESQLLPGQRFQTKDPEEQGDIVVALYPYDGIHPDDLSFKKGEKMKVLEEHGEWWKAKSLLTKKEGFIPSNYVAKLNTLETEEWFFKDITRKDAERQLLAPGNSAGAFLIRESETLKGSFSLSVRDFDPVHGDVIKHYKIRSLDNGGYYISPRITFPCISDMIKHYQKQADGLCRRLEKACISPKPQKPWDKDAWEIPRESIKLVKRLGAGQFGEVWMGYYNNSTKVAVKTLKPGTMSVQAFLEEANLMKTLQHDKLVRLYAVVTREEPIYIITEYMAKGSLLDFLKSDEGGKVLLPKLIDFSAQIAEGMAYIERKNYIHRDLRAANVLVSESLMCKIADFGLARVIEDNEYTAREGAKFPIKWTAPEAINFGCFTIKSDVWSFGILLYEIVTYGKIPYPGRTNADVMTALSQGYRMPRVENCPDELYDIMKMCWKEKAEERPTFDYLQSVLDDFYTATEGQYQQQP
KDR (VEGFR2), sequence (P35968 20-1356, species assumed): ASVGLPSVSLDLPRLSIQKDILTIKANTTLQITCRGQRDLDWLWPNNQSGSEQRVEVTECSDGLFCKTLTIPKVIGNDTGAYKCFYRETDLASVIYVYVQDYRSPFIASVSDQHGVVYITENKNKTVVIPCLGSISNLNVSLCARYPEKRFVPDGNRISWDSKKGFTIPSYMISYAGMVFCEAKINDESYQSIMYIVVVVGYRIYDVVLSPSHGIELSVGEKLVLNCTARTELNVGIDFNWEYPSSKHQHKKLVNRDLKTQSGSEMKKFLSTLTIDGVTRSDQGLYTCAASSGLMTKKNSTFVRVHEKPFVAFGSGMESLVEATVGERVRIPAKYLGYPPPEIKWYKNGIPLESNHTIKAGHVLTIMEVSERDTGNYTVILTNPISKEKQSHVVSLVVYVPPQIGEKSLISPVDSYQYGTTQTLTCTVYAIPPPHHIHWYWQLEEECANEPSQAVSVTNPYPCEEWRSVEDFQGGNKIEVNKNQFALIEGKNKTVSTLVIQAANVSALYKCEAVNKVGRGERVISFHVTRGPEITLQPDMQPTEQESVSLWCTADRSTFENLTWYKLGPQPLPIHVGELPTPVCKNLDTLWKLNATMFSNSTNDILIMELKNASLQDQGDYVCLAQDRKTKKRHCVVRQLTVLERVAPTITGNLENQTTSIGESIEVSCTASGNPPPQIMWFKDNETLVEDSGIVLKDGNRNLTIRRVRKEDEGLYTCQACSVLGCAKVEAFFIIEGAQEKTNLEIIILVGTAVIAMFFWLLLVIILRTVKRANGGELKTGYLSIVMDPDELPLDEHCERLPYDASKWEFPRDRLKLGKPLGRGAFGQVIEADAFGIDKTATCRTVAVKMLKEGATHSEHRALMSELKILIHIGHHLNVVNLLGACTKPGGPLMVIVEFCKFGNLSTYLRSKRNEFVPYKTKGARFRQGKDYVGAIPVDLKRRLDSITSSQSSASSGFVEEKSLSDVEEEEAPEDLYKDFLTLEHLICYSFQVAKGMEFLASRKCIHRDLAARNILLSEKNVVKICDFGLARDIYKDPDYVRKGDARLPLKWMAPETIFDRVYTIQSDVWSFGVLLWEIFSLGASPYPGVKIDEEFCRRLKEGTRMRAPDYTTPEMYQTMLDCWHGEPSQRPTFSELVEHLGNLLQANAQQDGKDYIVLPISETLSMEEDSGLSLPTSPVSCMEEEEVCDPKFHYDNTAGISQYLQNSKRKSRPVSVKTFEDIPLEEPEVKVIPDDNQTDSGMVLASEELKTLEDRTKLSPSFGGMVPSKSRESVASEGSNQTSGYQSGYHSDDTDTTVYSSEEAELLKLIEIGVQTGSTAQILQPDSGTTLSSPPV
FGFR2, sequence (P21802 22-821, species assumed): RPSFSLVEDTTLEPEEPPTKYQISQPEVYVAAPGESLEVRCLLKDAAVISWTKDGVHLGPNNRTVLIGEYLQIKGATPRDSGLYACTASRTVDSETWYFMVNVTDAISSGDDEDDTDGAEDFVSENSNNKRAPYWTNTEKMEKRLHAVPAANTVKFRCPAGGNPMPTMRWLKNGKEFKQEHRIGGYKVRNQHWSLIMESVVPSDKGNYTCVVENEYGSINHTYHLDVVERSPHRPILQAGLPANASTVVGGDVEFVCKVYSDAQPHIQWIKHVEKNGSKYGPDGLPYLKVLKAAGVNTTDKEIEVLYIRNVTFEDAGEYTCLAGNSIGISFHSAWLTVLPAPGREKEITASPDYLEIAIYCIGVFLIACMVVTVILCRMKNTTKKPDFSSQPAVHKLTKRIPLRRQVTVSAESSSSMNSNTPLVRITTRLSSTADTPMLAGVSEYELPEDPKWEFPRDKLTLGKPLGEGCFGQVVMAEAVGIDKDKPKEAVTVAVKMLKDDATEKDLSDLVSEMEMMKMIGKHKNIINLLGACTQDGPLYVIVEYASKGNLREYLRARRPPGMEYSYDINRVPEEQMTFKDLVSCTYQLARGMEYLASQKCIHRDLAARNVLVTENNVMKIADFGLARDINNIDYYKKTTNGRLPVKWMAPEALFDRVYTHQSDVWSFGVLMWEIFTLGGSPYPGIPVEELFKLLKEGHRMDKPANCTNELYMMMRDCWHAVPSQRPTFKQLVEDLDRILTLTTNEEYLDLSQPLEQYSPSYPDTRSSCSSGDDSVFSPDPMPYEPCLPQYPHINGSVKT

Cc1ncc2n1-c1ccc(Cl)cc1C(c1ccccc1F)=NC2 [Midazolam, reference compound]
% Reference Compound Remaining (CYP3A5; reference compound): 1%

COc1ccc(-c2cc(-c3ccc4c(c3)OCO4)cc(=O)[nH]2)cc1 [Compound VI]
IC50 at 96 h ([1]; text of b216, read-out: IC50, proliferation of CHO/CYP1B1 cells): 500 nM | activity against CHO/CYP1B1 cells (in words) (CHO/CYP1B1 cells): strongly inhibit proliferation | toxicity to wild-type CHO cells (in words) (wild-type CHO cells): non toxic | IC50 (wild-type CHO cells): > 100000 nM | toxicity / activity in CYP1A1 expressing CHO cells (in words) (CHO/CYP1A1 cells): non toxic | IC50 at 96 h [2]: > 100000 nM

CCCOc1ccc(-c2cc(-c3ccc(OC)c(OC)c3)[nH]c(=O)c2)cc1 [Compound II]
IC50 at 96 h [1, 4]: 90 ± 50 nM | activity against CHO/CYP1B1 cells (in words) (CHO/CYP1B1 cells): strongly inhibit proliferation | Mean Parent Remaining (%) (CYP3A5; 1 μM, after 60 minutes): 126% | Mean Parent Remaining (%) (CYP1A2; 1 μM, after 60 minutes): 69% | toxicity to wild-type CHO cells (in words) (wild-type CHO cells): non toxic | IC50 (wild-type CHO cells): > 50000 nM | wet tumour weight at the end of the study (FIG. 2) [3]: dose dependent reduction in wet tumour weight | Mean Parent Remaining (%) (CYP3A4): 122% | Mean Parent Remaining (%) (CYP2C19): 127% | Mean Parent Remaining (%) (CYP2D6): 127% | Mean Parent Remaining (%) (CYP2C9): 130% | toxicity / activity in CYP1A1 expressing CHO cells (in words) (CHO/CYP1A1 cells): non toxic | IC50 at 96 h [2]: > 50000 nM

COc1ccc(-c2cc(-c3ccc(O)c(O)c3)cc(=O)[nH]2)cc1OC [Compound XI]
inhibition at 10 µM (CSK): 98% | inhibition at 10 µM (Fyn): 100% | inhibition at 10 µM (Lyn): 99% | inhibition at 10 µM (KDR (VEGFR2)): 96% | inhibition at 10 µM (FGFR2): 98% | inhibition at 10 µM (FLT-1): 98% | inhibition at 10 µM (PDGFRβ): 91% | inhibition at 10 µM (FLT-3): 93% | inhibition at 10 µM (FGFR4): 85% | inhibition at 10 µM (C-Met (HGFR)): 58%

CCOc1ccc2nc3ccc(=O)cc-3oc2c1 [Ethoxy-resorufin, 7-ethoxyresorufin, reference compound]
% Reference Compound Remaining (CYP1A2; reference compound): 0%

COc1ccc(-c2cc(-c3ccc4c(c3)OCO4)cc(=O)[nH]2)c(OC)c1 [Compound III]
IC50 at 96 h [1, 4]: 40 ± 30 nM | activity against CHO/CYP1B1 cells (in words) (CHO/CYP1B1 cells): active | IC50 (wild-type CHO cells): 6110 ± 340 nM | toxicity / activity in CYP1A1 expressing CHO cells (in words) (CHO/CYP1A1 cells): active | IC50 at 96 h [2]: 950 ± 350 nM
